Experimental findings from paper PMC9691367, “The PROTAC selectively degrading Bcl-xL represents a novel Hedgehog pathway inhibitor with capacity of combating resistance to Smoothened inhibitors while sparing bone growth” (Theranostics, 2022) are described below.

One series addresses T1, Bcl-xL/CRBN (Homo sapiens, UniProt Q07817+Q96SW2).
T1 construct: purchased Cisbio 63ADK000CB37PEG
The experiment in a line: HTRF assay for ternary complex formation. It counts as binding. How it is done: Bcl-xL/CRBN ternary HTRF assay was used to monitor ternary complex formation between target protein, PROTAC and E3 ligase. Bcl-xL/CRBN PROTAC BINDING ASSAY KITS was purchased from Cisbio (#63ADK000CB37PEG). 200 nL compounds were transferred into 384 assay plate, followed by centrifuging at 1000 RPM. Then 5 µL Bcl-xL and CRBN protein were added into each assay well. After incubation at 25 °C for 15 min, 10 µL Tag2-Eu&Tag1-d2 working solution was added into each assay well and incubated 25 °C for 120 min. The Relative HTRF value was read with BMG (PHERAstar FSX).

The target in a further series is Bcl-xL (Homo sapiens, UniProt Q07817). The experiment in a line: Co-immunoprecipitation of Bcl-xL ubiquitination in 293T cells. To be noted: 293T cells with GST-Bcl-xL and HA-Ub, 1 µM, 4 h. It counts as cell-based. How it is done:
Cells were lysed in immunoprecipitation lysis buffer (#87787, Thermo Fisher Scientific) supplemented with protease and phosphatase inhibitor cocktail. Cell lysates were incubated with the indicated antibodies at 4 °C overnight, followed by incubation with Protein A/G Plus-Agarose beads (Santa Cruz Biotechnology) at 4 °C for 4 h. Immunoprecipitates were collected by centrifugation and washed three times with washing buffer. The complex was separated from the beads and then boiled for 10 min. The immunoprecipitates and inputs were analyzed by SDS-PAGE and immunoblot using the antibodies as indicated. […]
hydrochloride; DMAP = 4-dimethylaminopyridine; TFA = trifluoroacetic acid; DMF = N,N-dimethylformamide. (D) A representative western blot analysis of SALL4 in NIH-3T3 cells after being treated with SIAIS361034 as indicated for 24 h. (E) A representative western blot analysis of hemagglutinin (HA), Bcl-xL, and GAPDH following GST-Bcl-xL immunoprecipitation of protein extracts from 293T cells. Cells were cotransfected as indicated with GST-Bcl-xL and HA-tagged ubiquitin (HA-Ub) and then were treated with or without SIAIS361034 (1 µM) and MG132 (10 µM) as […]

A further series relates to NF-κB signaling pathway. The experiment in a line: NF-κB luciferase reporter assay in 293T cells. The class given is cell-based. To be noted: TNF-α 10 ng/mL, 6 h, SIAIS361034 10 μM, BAY 11-7082 20 μM. How it is done:
Cells seeded in 96-well plates were treated with various treatments as indicated. The luciferase activity in the cell lysates was measured using Dual-Luciferase Reporter Assay System (Promega, Madison, WI, USA) according to the manufacturer's instructions in a luminometer (Molecular Devices, Sunnyvale, CA). The firefly luciferase values were normalized to Renilla values. […]
Data represent mean ± SD (n = 3). (B) NF-κB luciferase analysis of the effect of SIAIS361034 on NF-κB signaling pathway in 293T cells.The 293T cells were transfected with NF-κB luciferase reporter and Renilla-TK plasmids and […]
μM) for 6 h. Data represent mean ± SD (n = 3). […]
Data represent mean ± SD (n = 3).
(1 picture or pasted object on this page, not shown here)

Another series deals with Gli1. Kind of series: Immunofluorescence staining of Gli1 in 293T cells transfected with Gli1. It counts as cell-based. The following applies: 293T cells transfected with Gli1, 1 µM, 24 h. How it is done:
Cells were fixed with 4% paraformaldehyde (PFA) for 15 min, permeabilized with 0.3% Triton X-100 in PBS for 10 min, and blocked with 1% BSA in PBS for 2 h. After that, the cells were further incubated with rabbit anti-Gli1 antibody (#101156-T10, SinoBiological) at 4 °C overnight. Then cells were stained with the Alexa Fluor®594-conjugated Goat Anti-rabbit IgG secondary antibody (red) for 1.5 h. Nuclei were counterstained with DAPI (blue). The immunofluorescent images of cells were captured under a fluorescence microscope (Leica).

Series [1] concerns Hh pathway (Gli-luciferase) provoked by Smo WT / Smo mutants. Kind of series: Dual luciferase reporter assay, Hh activity induced by ectopic Smo WT or Smo mutants in light II cells. The class given is cell-based. To be noted: for IC50: 36 h. The text has this: (§1) The TCF/LEF luciferase reporter plasmid, NF-κB luciferase reporter plasmid, and TK-Renilla luciferase plasmid were purchased from Promega (Madison, WI, USA). Smo plasmid was purchased from Origene (Rockville, MD, USA). The Smo mutant plasmids were generated from wild type Smo plasmid using QuickChange Site-Directed Mutagenesis kit from Agilent (Santa Clara, CA, USA) and confirmed by sequencing. Information on Smo mutants plasmids is provided in Supplementary data 2. The Gli1 plasmid and Gli2-HA plasmid were obtained from Addgene (Cambridge, MA, USA). Transient transfections were performed by Lipofectamine 2000 reagent from Invitrogen (Grand Island, NY, USA) according to the manufacturer's instructions.
(§2) Cells seeded in 96-well plates were treated with various treatments as indicated. The luciferase activity in the cell lysates was measured using Dual-Luciferase Reporter Assay System (Promega, Madison, WI, USA) according to the manufacturer's instructions in a luminometer (Molecular Devices, Sunnyvale, CA). The firefly luciferase values were normalized to Renilla values.
For orientation: Reporter assays use an easily measured gene product as a stand-in for the process of interest.

Series [2] deals with Hh pathway (Gli-luciferase) provoked by Gli2. Kind of series: Dual luciferase reporter assay, Hh activity initiated by ectopic Gli2-HA in light II cells. The class given is cell-based.
Text: as §1, §2

The test system of series [3] is hair growth and Hh pathway activity in skin. Kind of series: Depilatory mouse model. It counts as in vivo. How it is done:
For Depilatory model studies, male C57BL/6J mice (7 to 8 weeks of age) were purchased from Shanghai Lingchang Biotechnology Co. (Shanghai, China). After 2 days of acclimation, only healthy mice were used in the experiment. The back skin of the anesthetized mice was shaved and depilated using the depilatory Nair (Church & Dwight Co., Inc.). After 4 days, the depilated mice were randomized into groups for treatments as indicated. The back skin phenotypes were recorded by taking pictures every 3 days. Skin tissues were harvested 6 h after the last dosage to examining Gli1 mRNA expression as well as Gli1 and Bcl-xL protein levels.

The next series relates to platelets. The experiment in a line: Platelet toxicity assay in C57BL/6J mice. It counts as in vivo, mouse. To be noted: 8 h and 24 h. An excerpt:
Blood was collected at different time points via retro-orbital bleeding in anticoagulation tube. Platelets or different blood cells were enumerated using BM800 blood analyzer (Bowlinman Sunshine).

Like-named read-outs stand apart in the source and are kept apart here.

T1 sequence (Q07817 whole entry, species assumed): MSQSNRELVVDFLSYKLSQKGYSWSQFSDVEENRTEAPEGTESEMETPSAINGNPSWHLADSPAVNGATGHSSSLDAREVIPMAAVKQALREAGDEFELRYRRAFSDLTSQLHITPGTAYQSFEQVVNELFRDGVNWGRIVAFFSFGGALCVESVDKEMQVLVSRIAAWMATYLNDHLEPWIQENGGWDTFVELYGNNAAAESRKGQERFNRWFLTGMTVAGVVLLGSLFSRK
T1 sequence (Q96SW2 whole entry, species assumed): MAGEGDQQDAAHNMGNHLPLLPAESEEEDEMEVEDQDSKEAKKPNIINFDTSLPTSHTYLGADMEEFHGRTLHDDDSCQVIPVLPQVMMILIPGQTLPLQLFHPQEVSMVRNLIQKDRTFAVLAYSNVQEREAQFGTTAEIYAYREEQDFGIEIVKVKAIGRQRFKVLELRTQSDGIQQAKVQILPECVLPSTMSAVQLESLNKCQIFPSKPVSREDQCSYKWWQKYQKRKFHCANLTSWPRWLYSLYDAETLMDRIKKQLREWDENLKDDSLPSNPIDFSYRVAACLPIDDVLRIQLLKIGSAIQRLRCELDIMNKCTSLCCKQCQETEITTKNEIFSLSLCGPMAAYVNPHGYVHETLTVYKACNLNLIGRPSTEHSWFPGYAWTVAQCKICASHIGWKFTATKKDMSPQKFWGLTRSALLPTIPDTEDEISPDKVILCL
Bcl-xL, sequence (Q07817 whole entry, species assumed): as the sequence (Q07817 whole entry, species assumed) above

The term IC50 denotes the concentration needed to halve the response being measured. Take `CC1(C)CCC(c2ccc(Cl)cc2)=C(CN2CCN(c3ccc(C(=O)NS(=O)(=O)c4ccc(NCCCN5CCN(CCCC#Cc6cccc7c6CN(C6CCC(=O)NC6=O)C7=O)CC5)c(S(=O)(=O)C(F)(F)F)c4)cc3)CC2)C1` (centres unmarked) [SIAIS361034]: the “Ternary complex formation with Bcl-xL and CRBN E3 ligase” value at Bcl-xL/CRBN was “could form a stable ternary complex”. Moreover, the Bcl-xL ubiquitination entry at Bcl-xL was “induce Bcl-xL ubiquitination”. The “NF-κB luciferase activity activated by TNF-α” value in the series on NF-κB signaling pathway is given as “no inhibitory activity”. For the same compound, the “translocation of Gli1 from cytoplasm into nucleus” value with Gli1 is reported as “suppressed translocation of Gli1 from cytoplasm into nucleus”. For the same compound, the “IC50 shift between Smo wild-type and mutations” value in series [1] (Gli-luciferase) is “no significant IC50 shift”. In addition, the “Hh activity provoked by wild type Smo and Smo mutants” value in series [1] (Smo WT, D473H, H231R, W281C, W535L, L412F, F460L, GDC-0449 10 μM (Figure S3B-D)) is “obviously inhibited”. Also, the IC50 in series [1] (ectopic Smo D473H, read-out: IC50 value, Smo D473H) came out at 188 nM; in series [1] (ectopic Smo F460L, read-out: IC50 value, Smo F460L), 147 nM; in series [1] (ectopic Smo H231R, read-out: IC50 value, Smo H231R), 117 nM; in series [1] (ectopic Smo L412F, read-out: IC50 value, Smo L412F) it was 40.4 nM; in series [1] (ectopic Smo W281C, read-out: IC50 value, Smo W281C), 92.9 nM; in series [1] (ectopic Smo W535L, read-out: IC50 value, Smo W535L) it was 171 nM. Further, the concentration for half-maximal inhibition (IC50) in series [1] (ectopic Smo WT, read-out: IC50 value, Smo WT) was 186 nM; in series [2] (ectopic Gli2-HA, 36 h), 85.1 nM. The “Hh activity evoked by ectopic expression of Gli2” value in series [2] is on record as “significant potency”. In series [3] (male C57BL/6J mice, administered after 4 days of depilation), the “hair growth during depilation-induced hair regeneration” value is reported as “significantly retarded hair growth”. Moreover, in series [3] (skin harvested 6 h after the last dosage, RT-qPCR), the “Hh activity in skin (Gli1 mRNA)” value was “suppressed the Hh activity”. For the same compound, in series [3] (skin harvested 6 h after the last dosage, western blot), the “Gli1 and Bcl-xL protein levels in skin tissues” value was “suppressed the expression of Gli1 and Bcl-xL”. In addition, the number of platelets entry in the series on platelets (SIAIS361034 single i.p. 50 and 100 mg/kg, ABT-263 single p.o. 100 mg/kg) is reported as “no appreciable alterations”. Further, the “other blood cells (neutrophils, red blood cells)” value in the series on platelets (single i.p. 50 and 100 mg/kg) is “no influence”.
